Source: patent US20160051567A1, “PREVENTION AND TREATMENT OF KIDNEY DAMAGE” (METSELEX, INC., priority 2013, published 2016)
“Also recorded” adds a separate entry of the source.

What was measured:
[1] = test system: caspase-9; test: Western blot for active caspase-9 in kidney after AKI; format: in vivo; settings: rat kidney after AKI, Western blot with densitometry, p<0.01
Method: (§1) Rat model of AKI: All experiments were performed in accordance with the Institutional Animal Care and Use Committee. Six to eight week old Sprague-Dawley rats were anaesthetized by isoflurane gas, a midline abdominal incision was made, and bilateral renal pedicles were clamped for 45 minutes maintaining body temperature at 37° C. After removing the clamps, the abdomen was closed in two layers by using 4-0 absorbable sutures and Reflex 9 mm clips. Blood samples were obtained daily by tail vein puncture. Blood urea levels were measured by the improved Jung method using the QuantiChrom™ Urea Assay Kit as per manufacturer's protocol. Kidneys were harvested five days following surgery.
(§2) Administration of TUDCA: 200 mg/mL of TUDCA (Sigma) was dissolved in phosphate buffered saline at pH 7.5. […]
(§3) Protein extraction: Frozen kidney tissue was ground in liquid nitrogen using a pestle and mortar. […] The amount of protein present in the solution was quantified by the Bicinchoninic Acid Protein Assay kit as per manufacturer's protocol.
(§4) Western blot analysis: 20 μg of protein was mixed with SDS-PAGE sample buffer, boiled for 5 minutes, electrophoresed on a 12% Tris-HCl SDS-PAGE gel for 1 hour at 200 V, and electroblotted onto a nitrocellulose membrane. […] The immunoblot was detected using SuperSignal West Femto Maximum Sensitivity Substrate Kit. […]

[2] = test system: caspase-8; test: Western blot for active caspase-8 in kidney after AKI; format: in vivo; settings: rat kidney after AKI, TUDCA- vs vehicle-treated rats
Method: as §1, §2, §3, §4

[3] = test system: caspase-12; test: Western blot for active caspase-12 in kidney after AKI; format: in vivo; settings: rat kidney after AKI, TUDCA- vs vehicle-treated rats
Method: as §1, §2, §3, §4

[4] = test system: ERK1/2; test: Western blot for ERK1/2 in kidney after AKI; format: in vivo; settings: rat kidney after AKI, vs controls, p=0.29
Method: as §1, §2, §3, §4

[5] = test system: caspase-9; test: Caspase-9 activity assay in RPTE cells after cryopreservation injury; format: cell-based, human; settings: 100 μM and 150 μM, p<0.05
Method: (§5) Cell culture: RPTE cells were grown in Renal Epithelial Cell Basal Medium (REBM) with full supplements at 37° C. in 5% CO2 incubator as per supplier's instructions. RPTE cells were able to proliferate for 6-8 passages under the culture conditions.
Cryopreservation injury: We have utilized a published cell culture model of cryopreservation injury. In brief, RPTE cells were grown to 80% confluence in the complete medium containing TUDCA or vehicle. The complete medium was then replaced with University of Wisconsin solution containing TUDCA or vehicle. The culture plates were subsequently incubated in a temperature-regulated refrigerator at 4° C. for 48 hours. To simulate warm reperfusion phase of kidney transplantation, University of Wisconsin solution was replaced with complete medium containing TUDCA or vehicle, and cells were cultured for an additional 24 hours at 37° C. We used 100 μM or 150 μM of TUDCA for these experiments.
Caspase-9 Assay: The caspase-9 activity was measured in RPTE cells using Caspase-9 Assay kit. RPTE cells were suspended in 50 μL of chilled Cell Lysis Buffer and incubated on ice for 10 minutes. Subsequently, 50 μL of 2× Reaction Buffer and 5 μL of 1 mM LEHD-AFC substrate was added to each sample and the mixtures were incubated at 37° C. for 2 hours. The caspase-9 activity was quantified by measuring […].

[6] = test system: caspase-8; test: Western blot for caspase-8 in RPTE cells after cryopreservation injury; format: cell-based, human
Method: Cell culture: RPTE cells were grown in Renal Epithelial Cell Basal Medium (REBM) with full supplements at 37° C. in 5% CO2 incubator as per supplier's instructions. RPTE cells were able to proliferate for 6-8 passages under the culture conditions. Cryopreservation injury: We have utilized a published cell culture model of cryopreservation injury. In brief, RPTE cells were grown to 80% confluence in the complete medium containing TUDCA or vehicle. The complete medium was then replaced with University of Wisconsin solution containing TUDCA or vehicle. The culture plates were subsequently incubated in a temperature-regulated refrigerator at 4° C. for 48 hours. To simulate warm reperfusion phase of kidney transplantation, University of Wisconsin solution was replaced with complete medium containing TUDCA or vehicle, and cells were cultured for an additional 24 hours at 37° C. We used 100 μM or 150 μM of TUDCA for these experiments. Protein extraction: Frozen kidney tissue was ground in liquid nitrogen using a pestle and mortar. […] The amount of protein present in the solution was quantified by the Bicinchoninic Acid Protein Assay kit as per manufacturer's protocol. […] The immunoblot was detected using SuperSignal West Femto Maximum Sensitivity Substrate Kit. […]

[7] = test system: procaspase-12; test: Western blot for procaspase-12 in RPTE cells after cryopreservation injury; format: cell-based, human
Method: as §5
(§6) Cryopreservation injury: We have utilized a published cell culture model of cryopreservation injury. In brief, RPTE cells were grown to 80% confluence in the complete medium containing TUDCA or vehicle. The complete medium was then replaced with University of Wisconsin solution containing TUDCA or vehicle. The culture plates were subsequently incubated in a temperature-regulated refrigerator at 4° C. for 48 hours. […]
as §3, §4

[8] = test system: ERK1/2; test: Western blot for phosphorylated ERK1/2 in RPTE cells after cryopreservation injury; format: cell-based, human
Method: as §5, §6, §3, §4

For `C[C@H](CCC(=O)NCCS(=O)(=O)O)[C@H]1CC[C@H]2[C@@H]3[C@@H](O)C[C@@H]4C[C@H](O)CC[C@]4(C)[C@H]3CC[C@]12C` [TUDCA, tauroursodeoxycholic acid], the “activation of caspase-9 (mitochondrial pathway of apoptosis)” value [1] was “significantly inhibited”, the “activation of caspase-8 (death-receptor pathway)” value [2] was “no significant difference” and the “activation of caspase-12 (ER-stress pathway)” value [3] was “no significant difference”. For the same molecule, the “activation of ERK1/2” value [4] was “increased ERK1/2 levels in two out of three rats; also recorded: increased activation of ERK1/2 in the TUDCA group, although without statistical significance”, the “caspase-9 activation after cryopreservation injury” value [5] was “significantly inhibited” and the “activation of procaspase-8 (death receptor pathway)” value [6] was “no effect”. For the same molecule, the “activation of procaspase-12 (ER-stress pathway)” value [7] was “no effect”, the “activation of ERK1/2 (phosphorylated ERK1/2)” value ([8]; 100 μM, p<0.05) was “activated ERK1/2” and the “activation of ERK1/2 (phosphorylated ERK1/2)” value ([8]; 150 μM, p<0.01) was “activated ERK1/2”.
